Measured values as given in ChEMBL document CHEMBL3046638, “Synthesis and anticonvulsant activity of novel imidazol5(4H)one and 5-oxo-4,5-dihydroimidazol-1-yl)propanamide derivatives” (Med Chem Res, 2012).

What was measured:
Mus musculus [1] = assay: Anticonvulsant activity in Mus musculus albino (mouse) assessed as protection against maximal electroshock-induced seizures at 100 mg/kg, po after 1 hr relative to phenytoin; format: functional
Mus musculus [2] = assay: Anticonvulsant activity in Mus musculus albino (mouse) assessed as protection against maximal electroshock-induced seizures at 100 mg/kg, po after 1 hr; format: functional
Mus musculus [3] = assay: Neurotoxicity in Mus musculus albino (mouse) assessed as stability time on rotorod at 100 mg/kg, po after 30 min; format: toxicity, organism-based; parameters: dose 100 mg/kg, route oral; details: in vivo, 0.5 h

Row | Compound | Activity (Mus musculus [1]) [%] | Activity (Mus musculus [2]) [%] | Time (Mus musculus [3]) [s]
1 | COc1ccc(C(=O)CNN2C(=O)/C(=C/c3ccc(F)cc3F)N=C2c2ccc(F)cc2)cc1 | 71.42 |  | 
2 | O=C(CNN1C(=O)/C(=C/c2ccc(F)cc2F)N=C1c1ccc(F)cc1)c1ccc(O)cc1 | 57.15 |  | 
3 | CC(C(=O)Nc1ccccc1)N1C(=O)/C(=C/c2ccc(F)cc2F)N=C1c1ccc(F)cc1 (centres undefined) | 24.77 | -0.94 | 
4 | CC(C(=O)Nc1ccc(C#N)cc1)N1C(=O)/C(=C/c2ccc(F)cc2F)N=C1c1ccc(F)cc1 (centres undefined) | 96.42 |  | 285
5 | COc1ccc(NC(=O)C(C)N2C(=O)/C(=C/c3ccc(F)cc3F)N=C2c2ccc(F)cc2)cc1 (centres undefined) | 96.42 |  | 219
6 | O=C(CNN1C(=O)/C(=C/c2ccc(F)cc2F)N=C1c1ccc(F)cc1)c1ccccc1 | 37.5 | 49.96 | 
7 | O=C(CNN1C(=O)/C(=C/c2ccc(F)cc2F)N=C1c1ccc(F)cc1)c1ccc([N+](=O)[O-])cc1 | 64.28 |  | 
8 | O=C(CNN1C(=O)/C(=C/c2ccc(F)cc2F)N=C1c1ccc(F)cc1)c1ccc(-c2ccccc2)cc1 | 96.42 |  | 
9 | Cc1ccc(C(=O)CNN2C(=O)/C(=C/c3ccc(F)cc3F)N=C2c2ccc(F)cc2)cc1 | 92.84 |  | 174
